Source: PubChem BioAssay (NCI)
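Following 48 hours of exposure in 96-well plates, responses at five concentrations were used to interpolate endpoints linearly. At the TGI there is no net growth.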 Where a SMILES comes first, the peptide text is derived from it. The star is where a group is joined. Cbz = O=C(OCc1ccccc1)*; NHNH2 = NN*

Tests used:
Test in all cases: inhibition of tumour cell growth, NCI panel, 48 h
[1] = system: 786-0 renal
[2] = system: A498 renal
[3] = system: A549 NSCLC
[4] = system: ACHN renal
[5] = system: BT-549 breast
[6] = system: CAKI-1 renal
[7] = system: CCRF-CEM leukemia
[8] = system: COLO 205 colon
[9] = system: DU-145 prostate
[10] = system: EKVX NSCLC
[11] = system: HCC-2998 colon
[12] = system: HCT-116 colon
[13] = system: HCT-15 colon
[14] = system: HL-60(TB) leukemia
[15] = system: HOP-62 NSCLC
[16] = system: HS 578T breast
[17] = system: HT29 colon
[18] = system: IGROV1 ovarian
[19] = system: K-562 leukemia
[20] = system: KM12 colon
[21] = system: LOX IMVI melanoma
[22] = system: M14 melanoma
[23] = system: MCF7 breast
[24] = system: MDA-MB-231 breast
[25] = system: MDA-MB-435
[26] = system: MDA-N
[27] = system: MOLT-4 leukemia
[28] = system: NCI-H226 lung
[29] = system: NCI-H23 lung
[30] = system: NCI-H460 lung
[31] = system: NCI-H522 lung
[32] = system: NCI/ADR-RES ovarian
[33] = system: OVCAR-3 ovarian
[34] = system: OVCAR-4 ovarian
[35] = system: OVCAR-5 ovarian
[36] = system: OVCAR-8 ovarian
[37] = system: PC-3 prostate
[38] = system: RPMI-8226 leukemia
[39] = system: RXF 393 renal
[40] = system: SF-268 CNS
[41] = system: SF-295 CNS
[42] = system: SF-539 CNS
[43] = system: SK-MEL-2 melanoma
[44] = system: SK-MEL-28 melanoma
[45] = system: SK-MEL-5 melanoma
[46] = system: SK-OV-3 ovarian
[47] = system: SN12C renal
[48] = system: SNB-19 CNS
[49] = system: SNB-75 CNS
[50] = system: SR leukemia
[51] = system: SW-620 colon
[52] = system: T-47D breast
[53] = system: TK-10 renal
[54] = system: U251 CNS
[55] = system: UACC-257 melanoma
[56] = system: UACC-62 melanoma
[57] = system: UO-31 renal
[58] = system: HOP-92 NSCLC
[59] = system: MALME-3M melanoma

In the case of Oc1[nH]c2ccccc2c1N=Nc1c(F)c(F)c(F)c(F)c1F, the TGI [1] is reported as 50.5 µM, the TGI [2] is reported as > 100 µM and the TGI [3] is reported as > 100 µM. The TGI [4] was 36.8 µM, the TGI [5] was > 100 µM and the TGI [6] was > 64.3 µM. For the same compound, the TGI [7] was 16.5 µM, the TGI [8] was 28.3 µM and the TGI [9] was > 100 µM. For the same compound, the TGI [10] was > 100 µM, the TGI [11] was > 100 µM and the TGI [12] was > 100 µM. The TGI [13] was > 100 µM, the TGI [14] was 9.15 µM and the TGI [15] was > 100 µM. The TGI [16] was > 100 µM, the TGI [17] was > 100 µM and the TGI [18] was > 100 µM. For the same compound, the TGI [19] was 33.5 µM, the TGI [20] was > 61.9 µM and the TGI [21] was > 66.7 µM. The TGI [22] was > 100 µM, the TGI [23] was > 100 µM and the TGI [24] was > 100 µM. For the same compound, the TGI [25] was > 100 µM, the TGI [26] was > 100 µM and the TGI [27] was 31.8 µM. The TGI [28] was > 100 µM, the TGI [29] was > 100 µM and the TGI [30] was > 100 µM. For the same compound, the TGI [31] was 47.7 µM, the TGI [32] was > 100 µM and the TGI [33] was > 100 µM. For the same compound, the TGI [34] was > 100 µM, the TGI [35] was > 100 µM and the TGI [36] was > 100 µM. For the same compound, the TGI [37] was > 100 µM, the TGI [38] was 25.4 µM and the TGI [39] was > 100 µM. For the same compound, the TGI [40] was > 100 µM, the TGI [41] was > 100 µM and the TGI [42] was > 100 µM. For the same compound, the TGI [43] was > 100 µM, the TGI [44] was > 100 µM and the TGI [45] was > 100 µM. For the same compound, the TGI [46] was > 100 µM, the TGI [47] was > 55.7 µM and the TGI [48] was > 100 µM. For the same compound, the TGI [49] was > 100 µM, the TGI [50] was 14.4 µM and the TGI [51] was > 72.8 µM. The TGI [52] was > 74.7 µM, the TGI [53] was 62.8 µM and the TGI [54] was > 100 µM. The TGI [55] was > 71.5 µM, the TGI [56] was > 100 µM and the TGI [57] was > 91.8 µM.

For CCCN1C(=O)/C(=C\c2ccc(OC)c(OC)c2)SC1=Nc1ccccc1, the TGI [1] was > 100 µM, the TGI [2] was > 100 µM and the TGI [3] was > 100 µM. For the same compound, the TGI [4] was > 100 µM, the TGI [5] was > 100 µM and the TGI [6] was > 100 µM. The TGI [7] was > 100 µM, the TGI [8] was > 100 µM and the TGI [10] was > 100 µM. For the same compound, the TGI [11] was > 100 µM, the TGI [12] was > 100 µM and the TGI [13] was > 100 µM. The TGI [14] was > 100 µM, the TGI [15] was 98.5 µM and the TGI [58] was > 100 µM. The TGI [16] was > 100 µM, the TGI [17] was > 100 µM and the TGI [18] was > 100 µM. For the same compound, the TGI [19] was > 100 µM, the TGI [20] was > 100 µM and the TGI [21] was > 100 µM. For the same compound, the TGI [22] was > 100 µM, the TGI [59] was > 100 µM and the TGI [23] was > 100 µM. For the same compound, the TGI [24] was > 100 µM, the TGI [25] was > 100 µM and the TGI [26] was > 100 µM. For the same compound, the TGI [27] was > 100 µM, the TGI [28] was > 100 µM and the TGI [29] was > 100 µM. For the same compound, the TGI [30] was > 100 µM, the TGI [31] was > 100 µM and the TGI [32] was > 100 µM. The TGI [33] was > 100 µM, the TGI [34] was > 100 µM and the TGI [35] was > 100 µM. For the same compound, the TGI [36] was > 100 µM, the TGI [37] was > 100 µM and the TGI [38] was > 100 µM. For the same compound, the TGI [40] was > 100 µM, the TGI [41] was > 100 µM and the TGI [42] was > 100 µM. The TGI [43] was > 100 µM, the TGI [44] was > 100 µM and the TGI [45] was > 100 µM. For the same compound, the TGI [46] was > 100 µM, the TGI [47] was > 100 µM and the TGI [48] was > 100 µM. The TGI [50] was > 100 µM, the TGI [51] was > 100 µM and the TGI [52] was > 100 µM. For the same compound, the TGI [53] was 74.1 µM, the TGI [54] was > 100 µM and the TGI [55] was > 100 µM. The TGI [56] was > 100 µM and the TGI [57] was > 100 µM.

C=CCN(c1cc(OC)c2[nH]c(C(=O)OCC)c(C)c2c1[N+](=O)[O-])S(C)(=O)=O was tested, and the TGI [1] was > 100 µM, the TGI [2] was 65.6 µM and the TGI [3] was > 100 µM. The TGI [4] was 69.5 µM, the TGI [5] was 60.5 µM and the TGI [6] was > 100 µM. The TGI [7] was > 100 µM, the TGI [8] was 29.1 µM and the TGI [9] was > 100 µM. For the same compound, the TGI [10] was 46.2 µM, the TGI [11] was > 100 µM and the TGI [12] was 58.3 µM. The TGI [13] was > 100 µM, the TGI [14] was 46.5 µM and the TGI [15] was > 100 µM. For the same compound, the TGI [58] was 72.4 µM, the TGI [16] was 58.7 µM and the TGI [17] was 35.5 µM. The TGI [18] was > 100 µM, the TGI [19] was 31.4 µM and the TGI [20] was 66.2 µM. For the same compound, the TGI [21] was 39.4 µM, the TGI [22] was > 100 µM and the TGI [59] was 60.8 µM. It also gave a TGI [23] of 52.2 µM, a TGI [24] of 33.7 µM and a TGI [25] of 64.7 µM. For the same compound, the TGI [26] was 52.7 µM, the TGI [27] was 28.9 µM and the TGI [28] was 25.3 µM. The TGI [29] was > 100 µM, the TGI [30] was > 100 µM and the TGI [31] was 43.9 µM. For the same compound, the TGI [32] was 72.6 µM, the TGI [33] was 80.2 µM and the TGI [34] was > 100 µM. The TGI [35] was 99.1 µM, the TGI [36] was > 100 µM and the TGI [37] was 38.1 µM. The TGI [38] was 32.8 µM, the TGI [39] was 45.9 µM and the TGI [40] was > 100 µM. For the same compound, the TGI [41] was > 100 µM, the TGI [42] was > 100 µM and the TGI [43] was 51.3 µM. For the same compound, the TGI [44] was > 100 µM, the TGI [45] was 44.8 µM and the TGI [46] was > 100 µM. For the same compound, the TGI [47] was 56.1 µM, the TGI [48] was > 100 µM and the TGI [49] was 60 µM. For the same compound, the TGI [51] was > 100 µM, the TGI [52] was 48.6 µM and the TGI [53] was > 100 µM. The TGI [54] was 31.6 µM, the TGI [55] was > 100 µM and the TGI [56] was 61.7 µM. The TGI [57] was 74.8 µM.

In the case of CCOC(=O)CCC(NC(=O)OCc1ccccc1)C(=O)NC(CCC(=O)OCC)C(=O)NN (centres undefined) (Cbz-Glu(OEt)-Glu(OEt)-NHNH2; configuration not given here), the TGI [1] is reported as > 100 µM, the TGI [2] is reported as > 100 µM and the TGI [3] is reported as > 100 µM. For the same compound, the TGI [4] was > 100 µM, the TGI [5] was > 100 µM and the TGI [8] was > 100 µM. For the same compound, the TGI [10] was > 100 µM, the TGI [11] was > 100 µM and the TGI [12] was > 100 µM. The TGI [13] was > 100 µM, the TGI [14] was > 100 µM and the TGI [15] was > 100 µM. The TGI [58] was > 100 µM, the TGI [16] was > 100 µM and the TGI [17] was > 100 µM. For the same compound, the TGI [18] was > 100 µM, the TGI [19] was > 100 µM and the TGI [20] was > 100 µM. For the same compound, the TGI [22] was > 100 µM, the TGI [59] was > 100 µM and the TGI [23] was > 100 µM. For the same compound, the TGI [24] was > 100 µM, the TGI [26] was > 100 µM and the TGI [27] was > 100 µM. The TGI [28] was > 100 µM, the TGI [30] was > 100 µM and the TGI [35] was > 100 µM. For the same compound, the TGI [36] was > 100 µM, the TGI [37] was > 100 µM and the TGI [38] was > 100 µM. For the same compound, the TGI [43] was > 100 µM, the TGI [44] was > 100 µM and the TGI [45] was > 100 µM. For the same compound, the TGI [47] was > 100 µM, the TGI [48] was > 100 µM and the TGI [49] was > 100 µM. The TGI [50] was > 100 µM, the TGI [51] was > 100 µM and the TGI [53] was > 100 µM. The TGI [54] was > 100 µM, the TGI [55] was > 100 µM and the TGI [56] was > 100 µM. The TGI [57] was > 100 µM.
